Data published in the kinase profiling compilation of Christmann-Franck et al. (2016).

Tests used:
Assay in all cases: KINOMEscan competition binding
Conditions in all cases: compound 10.0 µM
PRKG1 (human) = PRKG1 (human) (UniProt Q13976)
RPS6KA6 KD2 (human) = RPS6KA6 KD2 (human) (UniProt Q9UK32)
MYO3A (human) = MYO3A (human) (UniProt Q8NEV4)
PRKCH (human) = PRKCH (human) (UniProt P24723)
GSK3B (human) = GSK3B (human) (UniProt P49841)
CDKL2 (human) = CDKL2 (human) (UniProt Q92772)
CAMK2B (human) = CAMK2B (human) (UniProt Q13554)
[1] = target: JAK2 JH1 catalytic (human) (UniProt O60674)
RPS6KA4 KD2 (human) = RPS6KA4 KD2 (human) (UniProt O75676)
FGFR4 (human) = FGFR4 (human) (UniProt P22455)
LTK (human) = LTK (human) (UniProt P29376)
HIPK1 (human) = HIPK1 (human) (UniProt Q86Z02)
MAP3K4 (human) = MAP3K4 (human) (UniProt Q9Y6R4)
AAK1 (human) = AAK1 (human) (UniProt Q2M2I8)
DCLK1 (human) = DCLK1 (human) (UniProt O15075)
DAPK2 (human) = DAPK2 (human) (UniProt Q9UIK4)
STK4 (human) = STK4 (human) (UniProt Q13043)
AXL (human) = AXL (human) (UniProt P30530)
INSRR (human) = INSRR (human) (UniProt P14616)
FLT3 (human) = FLT3 (human) (UniProt P36888)
CSK (human) = CSK (human) (UniProt P41240)
IKBKE (human) = IKBKE (human) (UniProt Q14164)
PKN2 (human) = PKN2 (human) (UniProt Q16513)
CAMK1G (human) = CAMK1G (human) (UniProt Q96NX5)
SRMS (human) = SRMS (human) (UniProt Q9H3Y6)
MAPK7 (human) = MAPK7 (human) (UniProt Q13164)
GAK (human) = GAK (human) (UniProt O14976)
NEK7 (human) = NEK7 (human) (UniProt Q8TDX7)
TEK (human) = TEK (human) (UniProt Q02763)
CAMK2A (human) = CAMK2A (human) (UniProt Q9UQM7)
CHEK2 (human) = CHEK2 (human) (UniProt O96017)
MAPK10 (human) = MAPK10 (human) (UniProt P53779)
[2] = target: JAK1 JH1 catalytic (human) (UniProt P23458)
CIT (human) = CIT (human) (UniProt O14578)

RPS6KA6 KD2 (human), sequence (Q9UK32 whole entry, looked up): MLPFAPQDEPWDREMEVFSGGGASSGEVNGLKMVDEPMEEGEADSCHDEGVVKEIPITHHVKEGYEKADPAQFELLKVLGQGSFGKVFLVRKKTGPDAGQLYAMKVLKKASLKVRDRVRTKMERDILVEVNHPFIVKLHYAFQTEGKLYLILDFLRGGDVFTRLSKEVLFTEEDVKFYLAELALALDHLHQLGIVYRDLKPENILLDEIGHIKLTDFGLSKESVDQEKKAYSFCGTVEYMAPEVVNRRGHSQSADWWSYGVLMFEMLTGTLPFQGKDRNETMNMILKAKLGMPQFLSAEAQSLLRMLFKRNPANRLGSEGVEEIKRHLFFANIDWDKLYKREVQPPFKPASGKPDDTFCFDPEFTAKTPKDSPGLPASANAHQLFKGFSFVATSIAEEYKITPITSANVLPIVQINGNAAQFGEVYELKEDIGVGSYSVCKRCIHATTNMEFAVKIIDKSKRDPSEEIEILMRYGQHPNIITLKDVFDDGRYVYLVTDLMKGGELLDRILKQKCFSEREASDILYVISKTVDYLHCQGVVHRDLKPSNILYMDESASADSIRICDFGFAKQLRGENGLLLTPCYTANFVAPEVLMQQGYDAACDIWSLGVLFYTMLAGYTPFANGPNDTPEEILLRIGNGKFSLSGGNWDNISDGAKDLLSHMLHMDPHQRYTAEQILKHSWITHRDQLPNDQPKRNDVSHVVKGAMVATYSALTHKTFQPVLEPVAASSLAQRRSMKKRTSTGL
FGFR4 (human), sequence (P22455 whole entry, looked up): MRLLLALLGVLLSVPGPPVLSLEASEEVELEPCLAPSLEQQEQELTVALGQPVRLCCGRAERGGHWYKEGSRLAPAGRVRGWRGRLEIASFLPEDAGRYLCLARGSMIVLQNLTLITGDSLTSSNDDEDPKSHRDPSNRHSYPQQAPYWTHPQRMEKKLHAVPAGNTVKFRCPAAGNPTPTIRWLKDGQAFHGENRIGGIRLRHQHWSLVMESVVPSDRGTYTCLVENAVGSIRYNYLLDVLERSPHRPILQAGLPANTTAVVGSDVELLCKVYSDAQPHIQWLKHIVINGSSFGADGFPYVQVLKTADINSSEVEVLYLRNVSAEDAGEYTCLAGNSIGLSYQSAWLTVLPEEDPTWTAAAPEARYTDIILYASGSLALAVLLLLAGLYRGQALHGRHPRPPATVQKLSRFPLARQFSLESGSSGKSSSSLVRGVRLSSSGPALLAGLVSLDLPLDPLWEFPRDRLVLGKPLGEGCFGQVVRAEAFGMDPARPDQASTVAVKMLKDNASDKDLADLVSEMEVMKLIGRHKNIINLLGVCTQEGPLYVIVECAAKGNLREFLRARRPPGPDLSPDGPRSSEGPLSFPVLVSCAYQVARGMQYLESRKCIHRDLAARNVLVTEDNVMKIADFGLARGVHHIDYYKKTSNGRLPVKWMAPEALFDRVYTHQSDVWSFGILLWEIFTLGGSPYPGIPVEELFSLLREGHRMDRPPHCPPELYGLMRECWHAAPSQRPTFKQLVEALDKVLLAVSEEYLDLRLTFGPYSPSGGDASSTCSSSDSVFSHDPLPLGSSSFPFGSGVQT
PRKCH (human), sequence (P24723 whole entry, looked up): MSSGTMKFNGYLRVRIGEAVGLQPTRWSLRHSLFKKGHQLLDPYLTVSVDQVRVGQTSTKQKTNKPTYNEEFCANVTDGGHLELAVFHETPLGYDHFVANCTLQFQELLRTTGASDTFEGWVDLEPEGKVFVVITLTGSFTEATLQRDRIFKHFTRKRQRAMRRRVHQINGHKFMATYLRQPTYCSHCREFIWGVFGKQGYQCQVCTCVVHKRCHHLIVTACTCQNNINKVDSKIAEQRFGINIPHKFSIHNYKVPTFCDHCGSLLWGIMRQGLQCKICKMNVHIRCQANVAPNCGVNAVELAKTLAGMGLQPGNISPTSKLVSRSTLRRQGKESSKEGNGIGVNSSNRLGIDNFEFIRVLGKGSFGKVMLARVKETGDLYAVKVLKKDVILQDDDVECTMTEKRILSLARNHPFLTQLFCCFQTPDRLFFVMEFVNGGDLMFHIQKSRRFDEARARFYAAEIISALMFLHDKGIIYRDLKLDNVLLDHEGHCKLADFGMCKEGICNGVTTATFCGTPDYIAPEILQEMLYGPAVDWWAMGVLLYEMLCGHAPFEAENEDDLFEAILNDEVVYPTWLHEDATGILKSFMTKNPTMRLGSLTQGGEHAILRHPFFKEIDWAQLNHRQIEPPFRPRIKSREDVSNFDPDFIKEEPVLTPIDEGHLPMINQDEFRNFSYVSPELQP
DAPK2 (human), sequence (Q9UIK4 whole entry, looked up): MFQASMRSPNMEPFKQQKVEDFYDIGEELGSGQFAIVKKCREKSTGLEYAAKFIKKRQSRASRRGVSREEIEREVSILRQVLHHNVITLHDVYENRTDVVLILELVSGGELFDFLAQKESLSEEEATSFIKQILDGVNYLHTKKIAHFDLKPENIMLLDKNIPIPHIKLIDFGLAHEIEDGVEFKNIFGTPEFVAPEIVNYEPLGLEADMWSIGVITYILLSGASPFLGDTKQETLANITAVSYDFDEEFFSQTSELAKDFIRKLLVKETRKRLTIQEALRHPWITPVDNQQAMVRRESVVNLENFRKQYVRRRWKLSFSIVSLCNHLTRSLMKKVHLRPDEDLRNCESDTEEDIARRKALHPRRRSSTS
IKBKE (human), sequence (Q14164 whole entry, looked up): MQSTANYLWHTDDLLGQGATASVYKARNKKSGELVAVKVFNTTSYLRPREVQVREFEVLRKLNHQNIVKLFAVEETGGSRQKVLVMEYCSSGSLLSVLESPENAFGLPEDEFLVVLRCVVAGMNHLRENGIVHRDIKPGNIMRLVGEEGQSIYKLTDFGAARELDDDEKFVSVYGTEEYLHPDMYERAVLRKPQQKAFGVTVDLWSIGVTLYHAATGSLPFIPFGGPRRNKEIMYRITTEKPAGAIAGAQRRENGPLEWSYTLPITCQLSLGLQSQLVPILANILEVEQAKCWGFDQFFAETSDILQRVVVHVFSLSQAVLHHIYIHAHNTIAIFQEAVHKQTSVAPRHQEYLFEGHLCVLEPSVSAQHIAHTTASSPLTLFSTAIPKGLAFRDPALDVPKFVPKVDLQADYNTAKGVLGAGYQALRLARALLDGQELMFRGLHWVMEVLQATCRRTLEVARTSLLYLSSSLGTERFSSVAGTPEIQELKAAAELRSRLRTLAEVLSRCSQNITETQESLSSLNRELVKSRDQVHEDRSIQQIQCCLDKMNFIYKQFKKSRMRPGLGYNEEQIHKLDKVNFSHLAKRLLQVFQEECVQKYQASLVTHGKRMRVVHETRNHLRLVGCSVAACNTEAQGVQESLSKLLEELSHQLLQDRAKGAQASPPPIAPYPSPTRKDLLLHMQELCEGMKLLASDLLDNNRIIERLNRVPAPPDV
RPS6KA4 KD2 (human), sequence (O75676 whole entry, looked up): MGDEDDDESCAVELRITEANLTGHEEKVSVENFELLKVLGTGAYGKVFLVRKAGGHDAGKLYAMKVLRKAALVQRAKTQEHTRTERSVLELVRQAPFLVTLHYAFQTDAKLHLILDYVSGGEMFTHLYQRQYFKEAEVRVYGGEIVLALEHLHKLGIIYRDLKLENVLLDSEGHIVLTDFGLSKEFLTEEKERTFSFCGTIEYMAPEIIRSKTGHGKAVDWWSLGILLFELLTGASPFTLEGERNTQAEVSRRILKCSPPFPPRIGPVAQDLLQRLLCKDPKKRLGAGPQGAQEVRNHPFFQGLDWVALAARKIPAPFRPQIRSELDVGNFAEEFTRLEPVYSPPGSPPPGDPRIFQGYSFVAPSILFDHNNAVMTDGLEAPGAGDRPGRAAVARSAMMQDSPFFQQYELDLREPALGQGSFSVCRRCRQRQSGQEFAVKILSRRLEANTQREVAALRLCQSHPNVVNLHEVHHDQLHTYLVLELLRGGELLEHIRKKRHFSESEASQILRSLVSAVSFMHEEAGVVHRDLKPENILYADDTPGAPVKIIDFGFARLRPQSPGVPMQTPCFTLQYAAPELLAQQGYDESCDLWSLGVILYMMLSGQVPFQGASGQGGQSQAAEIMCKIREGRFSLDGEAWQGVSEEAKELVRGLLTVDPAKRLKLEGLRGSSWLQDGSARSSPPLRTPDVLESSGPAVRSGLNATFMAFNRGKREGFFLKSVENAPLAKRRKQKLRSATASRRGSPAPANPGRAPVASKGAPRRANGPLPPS
PRKG1 (human), sequence (Q13976 whole entry, looked up): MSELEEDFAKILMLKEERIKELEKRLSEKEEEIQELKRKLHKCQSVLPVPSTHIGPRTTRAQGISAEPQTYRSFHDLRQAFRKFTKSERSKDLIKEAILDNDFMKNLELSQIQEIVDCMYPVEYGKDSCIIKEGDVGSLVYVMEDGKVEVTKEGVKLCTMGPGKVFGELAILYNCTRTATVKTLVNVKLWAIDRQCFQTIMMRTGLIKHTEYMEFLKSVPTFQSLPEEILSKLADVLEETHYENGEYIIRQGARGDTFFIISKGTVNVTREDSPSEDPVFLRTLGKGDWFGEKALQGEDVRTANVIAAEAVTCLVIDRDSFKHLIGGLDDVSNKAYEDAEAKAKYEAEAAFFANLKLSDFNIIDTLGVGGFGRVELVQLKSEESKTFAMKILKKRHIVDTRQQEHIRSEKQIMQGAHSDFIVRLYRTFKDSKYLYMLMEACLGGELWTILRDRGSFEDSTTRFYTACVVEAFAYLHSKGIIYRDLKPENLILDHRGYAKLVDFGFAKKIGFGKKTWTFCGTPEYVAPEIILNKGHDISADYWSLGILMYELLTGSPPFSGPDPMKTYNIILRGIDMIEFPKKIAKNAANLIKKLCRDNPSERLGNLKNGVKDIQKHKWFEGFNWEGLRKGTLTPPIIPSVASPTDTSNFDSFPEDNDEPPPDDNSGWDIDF

kinase still bound, per cent of control (PRKG1 (human))	kinase still bound, per cent of control (RPS6KA6 KD2 (human))	kinase still bound, per cent of control (MYO3A (human))	kinase still bound, per cent of control (PRKCH (human))	kinase still bound, per cent of control (GSK3B (human))	kinase still bound, per cent of control (CAMK2B (human))	kinase still bound, per cent of control [1]	kinase still bound, per cent of control (RPS6KA4 KD2 (human))	kinase still bound, per cent of control (FGFR4 (human))	kinase still bound, per cent of control (LTK (human))	kinase still bound, per cent of control (MAP3K4 (human))	kinase still bound, per cent of control (AAK1 (human))	kinase still bound, per cent of control (DCLK1 (human))	kinase still bound, per cent of control (DAPK2 (human))	kinase still bound, per cent of control (STK4 (human))	kinase still bound, per cent of control (AXL (human))	kinase still bound, per cent of control (INSRR (human))	kinase still bound, per cent of control (FLT3 (human))	kinase still bound, per cent of control (CSK (human))	kinase still bound, per cent of control (IKBKE (human))	Compound	also measured
100%	100%	100%	100%	100%	100%	100%	100%	100%	34%	12%	100%	31%	28%	100%	4%	0.35%	100%	100%	100%	COc1cc(C)c(Sc2cnc(NC(=O)c3ccc(CNC(C)C(C)C)cc3)s2)cc1C(=O)N1CCN(C(C)=O)CC1 (centres undefined)	kinase still bound, per cent of control (CDKL2 (human)): 100%; kinase still bound, per cent of control (HIPK1 (human)): 100%; kinase still bound, per cent of control (PKN2 (human)): 100%; kinase still bound, per cent of control (CAMK1G (human)): 100%; kinase still bound, per cent of control (SRMS (human)): 100%; kinase still bound, per cent of control (MAPK7 (human)): 100%; kinase still bound, per cent of control (GAK (human)): 100%; kinase still bound, per cent of control (NEK7 (human)): 14%; kinase still bound, per cent of control (TEK (human)): 29%; kinase still bound, per cent of control (CAMK2A (human)): 100%; kinase still bound, per cent of control (CHEK2 (human)): 100%; kinase still bound, per cent of control (MAPK10 (human)): 100%; kinase still bound, per cent of control [2]: 100%; kinase still bound, per cent of control (CIT (human)): 100%
100%	100%	100%	100%	100%	100%	2.3%	100%	0.4%	2.7%	100%	100%	100%	100%	100%	100%	100%	100%	1.2%	100%	COc1ccc(N(C(=O)Oc2cc(C(=O)Nc3cccc(C(F)(F)F)c3)ccc2C)c2ccnc(Nc3ccc(N4CCN(C)CC4)cc3)n2)c(OC)c1	kinase still bound, per cent of control (PKN2 (human)): 100%; kinase still bound, per cent of control (CAMK1G (human)): 100%; kinase still bound, per cent of control (SRMS (human)): 0%; kinase still bound, per cent of control (MAPK7 (human)): 15%; kinase still bound, per cent of control (GAK (human)): 26%; kinase still bound, per cent of control (NEK7 (human)): 100%; kinase still bound, per cent of control (TEK (human)): 0.05%; kinase still bound, per cent of control (CAMK2A (human)): 100%; kinase still bound, per cent of control (MAPK10 (human)): 100%; kinase still bound, per cent of control (CIT (human)): 0.7%
